Laboratory results: ChEMBL document CHEMBL4619732, “Two new secondary metabolites, saccharochlorines A and B, from a marine bacterium Saccharomonospora sp. KCTC-19160” (Bioorg Med Chem Lett, 2020)
Calls of active or inactive are those of the source. The calls are words filed in the database; no cut-off is given here.

Tests used:
SH-SY5Y [1] = assay: Induction of amyloid beta (1 to 40) secretion in human SH-SY5Y cells incubated for overnight by ELISA; format: functional, cell-based
SH-SY5Y [2] = assay: Induction of amyloid beta (1 to 42) secretion in human SH-SY5Y cells incubated for overnight by ELISA; format: functional, cell-based
H4 [3] = assay: Induction of amyloid beta (1 to 40) secretion in human H4 cells overexpressing APP incubated for overnight by ELISA; format: functional, cell-based
H4 [4] = assay: Induction of amyloid beta (1 to 42) secretion in human H4 cells overexpressing APP incubated for overnight by ELISA; format: functional, cell-based
Homo sapiens = organism: Homo sapiens; assay: Inhibition of monoamine oxidase (unknown origin)

| SMILES | Activity (SH-SY5Y [1]) | Activity (SH-SY5Y [2]) | Activity (H4 [3]) | Activity (H4 [4]) | inhibition (Homo sapiens) |
| --- | --- | --- | --- | --- | --- |
| CO/C(=C\c1cc(Cl)c(O)c(Cl)c1)C(=O)O | inactive | inactive | Dose-dependent effect | Dose-dependent effect | inactive |
| CO/C(=C\c1ccc(O)c(Cl)c1)C(=O)O | inactive | inactive | Dose-dependent effect | Dose-dependent effect | inactive |
